Earlier results as cited in US20060094692A1, “Pharmaceutical formulations of camptothecins and process for making same” (BioNumerik Pharmaceuticals, Inc., priority 2004, published 2006).

Conditions: fraction of the potency of the lactone form

CC[C@@](O)(C(=O)O)c1cc2n(c(=O)c1CO)Cc1cc3ccccc3nc1-2 [carboxylate form of CPT]
antitumor potency relative to the lactone form of CPT: approximately one-tenth or less
